Positions of bridges follow the written chain, without caps; N, C: chain ends. Non-standard residues stand in square brackets, D forms with d. 2Nal = N[C@@H](Cc1ccc2ccccc2c1)C(=O)O; AEF = NCCOc1ccc(C[C@H](N)C(=O)O)cc1; αMeL = CC(C)C[C@](C)(N)C(=O)O; Pen = CC(C)(S)[C@H](N)C(=O)O; Thp = NC1(C(=O)O)CCOCC1; Abu = CC[C@H](N)C(=O)O
T1: interleukin-23 receptor (IL-23R) (human, UniProt Q5VWK5 24-629)
T1 sequence (looked up): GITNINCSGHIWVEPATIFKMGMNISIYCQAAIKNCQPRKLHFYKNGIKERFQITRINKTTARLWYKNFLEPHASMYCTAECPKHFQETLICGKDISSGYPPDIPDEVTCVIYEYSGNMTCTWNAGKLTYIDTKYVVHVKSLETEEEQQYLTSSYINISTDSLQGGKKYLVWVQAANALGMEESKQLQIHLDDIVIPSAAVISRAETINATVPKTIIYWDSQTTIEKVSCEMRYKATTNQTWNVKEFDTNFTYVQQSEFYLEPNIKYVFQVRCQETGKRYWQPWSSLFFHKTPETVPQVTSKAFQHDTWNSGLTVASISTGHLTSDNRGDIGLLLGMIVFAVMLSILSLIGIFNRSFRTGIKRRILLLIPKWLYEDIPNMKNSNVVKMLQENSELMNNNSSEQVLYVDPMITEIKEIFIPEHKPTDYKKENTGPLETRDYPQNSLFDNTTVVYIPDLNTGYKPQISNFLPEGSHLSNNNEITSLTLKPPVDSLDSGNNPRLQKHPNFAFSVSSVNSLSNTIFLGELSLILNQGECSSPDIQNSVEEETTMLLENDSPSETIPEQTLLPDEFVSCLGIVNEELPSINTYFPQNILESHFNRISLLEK


Target: T1, interleukin-23 receptor (IL-23R)
Test: cell-based or functional assay
Conditions: not given

Molecule | IC50, pStat3 HTRF (nM)
XXQTWQCXXXENN (Alexa488-[PEG4]-[(D)Arg]-cyclo[[Abu]-QTWQC]-[Phe[4-(2-aminoethoxy)]-[2-Nal]-[4-amino-4-carboxy-tetrahydropyran]-ENN-NH2) [SEQ ID NO 71] | < 1 nM
XXQTWXCXXXENN (Ac-[(D)Arg]-cyclo[[Abu]-QTW-[β-homoGln]-C]-[Phe[4-(2-aminoethoxy)]-[2-Nal]-[4-amino-4-carboxy-tetrahydropyran]-ENN-NH2) [SEQ ID NO 97] | > 100 nM
XXQTXQCXXXENN (Ac-[(D)Arg]-cyclo[[Abu]-QT-[Trp(5-F)]-QC]-[Phe[4-(2-aminoethoxy)]-[2-Nal]-[α-MeLeu]-ENN-NH2) [SEQ ID NO 105] | < 1 nM
XQTXQCXXXENN (Ac-cyclo[[Abu]-QT-[Trp(5-F)]-QC]-[Phe[4-(2-aminoethoxy)]-[2-Nal]-[α-MeLeu]-ENN-NH2) [SEQ ID NO 106] | < 1 nM
XXQTWQCXXXENN (Ac-[(D)Arg]-cyclo[[Abu]-QTWQC]-[Phe[4-(2-aminoethoxy)]-[2-Nal]-[α-MeLeu]-ENN-NH2) [SEQ ID NO 107] | < 1 nM

Tested on: IL-23R-expressing DB cells stimulated with IL-23 (pSTAT3 levels)
Test: DB cells IL23R pSTAT3 cell assay (Cisbio HTRF pSTAT3)
Type: cell-based, human
Conditions: Table E2, thioether peptides, IL-23 0.5 nM, 30 minutes at 37° C.
From the text: Human ELISA indicates the IL23-IL23R competitive binding assay described below, Rat ELISA indicates the rat IL-23R competitive binding ELISA assay described below, and pStat3HTRF indicates the DB cells IL-23R pSTAT3 cell assay described below. The peptides depicted in Table E1 are cyclized via a disulfide bridge formed between two Pen residues in these peptides. The peptides depicted in Table E2 are cyclized via a thioether bond between the indicated amino acid residues. Table E2 provides an illustrative structure depicting thioether cyclization, which is indicated in the table by the term “cyclo,” with the cyclic region bracketed immediately following the term “cyclo.” For certain peptides, the residue Abu is present where indicated, whereas in other embodiments, e.g., those related to the non-cyclized form, the Abu may be referred to as a hSer(Cl) or homoSer residue.
DB Cells IL23R pSTAT3 Cell Assay
IL-23 plays a central role in supporting and maintaining Th17 differentiation in vivo. […] This cell assay examines the levels of pSTAT3 in IL-23R-expressing DB cells when stimulated with IL-23 in the presence of test compounds.

Molecule | IC50
85 (XXQTWQCXXXEDN; MOD_RES (1)..(1) D-form arginine; MOD_RES (2)..(2) Abu; (2)..(7) residues cyclosized; MOD_RES (8)..(8) 4-(2-aminoethoxy)-L-phenylalanine; MOD_RES (9)..(9) L-2-Napthylalanine; MOD_RES (10)..(10) 4-amino-4-carboxy-tetrahydropyran) [compound 85] | 10 to 100 nM
86 (XXQTWECXXXENN; MOD_RES (1)..(1) D-form arginine; MOD_RES (2)..(2) Abu; (2)..(7) residues cyclosized; MOD_RES (8)..(8) 4-(2-aminoethoxy)-L-phenylalanine; MOD_RES (9)..(9) L-2-Napthylalanine; MOD_RES (10)..(10) 4-amino-4-carboxy-tetrahydropyran) [compound 86] | 1 to 10 nM
81 (Ac-[dR][Abu]ETWQC[AEF][2Nal][Thp]EDN-NH2; thioether 2-7) [compound 81] | 10 to 100 nM
103 (XXQTWVCXXXENN; MOD_RES (1)..(1) D-form arginine; MOD_RES (2)..(2) Abu; (2)..(7) residues cyclosized; MOD_RES (8)..(8) 4-(2-aminoethoxy)-L-phenylalanine; MOD_RES (9)..(9) L-2-Napthylalanine; MOD_RES (10)..(10) 4-amino-4-carboxy-tetrahydropyran) [compound 103] | 10 to 100 nM
79 (Ac-[dR][Abu]ETWQC[AEF][2Nal][Thp]END-NH2; thioether 2-7) [compound 79] | 1 to 10 nM
102 (XXQTWTCXXXENN; MOD_RES (1)..(1) D-form arginine; MOD_RES (2)..(2) Abu; (2)..(7) residues cyclosized; MOD_RES (8)..(8) 4-(2-aminoethoxy)-L-phenylalanine; MOD_RES (9)..(9) L-2-Napthylalanine; MOD_RES (10)..(10) 4-amino-4-carboxy-tetrahydropyran) [compound 102] | 10 to 100 nM
82 (Ac-[dR][Abu]ETWEC[AEF][2Nal][Thp]ENN-NH2; thioether 2-7) [compound 82] | 1 to 10 nM
100 (XXQTWWCXXXENN; MOD_RES (1)..(1) D-form arginine; MOD_RES (2)..(2) Abu; (2)..(7) residues cyclosized; MOD_RES (8)..(8) 4-(2-aminoethoxy)-L-phenylalanine; MOD_RES (9)..(9) L-2-Napthylalanine; MOD_RES (10)..(10) 4-amino-4-carboxy-tetrahydropyran) [compound 100] | 1 to 10 nM
78 (Ac-[dR][Abu]QTWEC[AEF][2Nal][Thp]END-NH2; thioether 2-7) [compound 78] | 1 to 10 nM
84 (XXQTWQCXXXEND; MOD_RES (1)..(1) D-form arginine; MOD_RES (2)..(2) Abu; (2)..(7) residues cyclosized; MOD_RES (8)..(8) 4-(2-aminoethoxy)-L-phenylalanine; MOD_RES (9)..(9) L-2-Napthylalanine; MOD_RES (10)..(10) 4-amino-4-carboxy-tetrahydropyran) [compound 84] | 10 to 100 nM
73 (XXQTWQCXXXEND; MOD_RES (1)..(1) D-form arginine; MOD_RES (2)..(2) Abu; (2)..(7) residues cyclosized; MOD_RES (8)..(8) 4-(2-aminoethoxy)-L-phenylalanine; MOD_RES (9)..(9) L-2-Napthylalanine; MOD_RES (10)..(10) 4-amino-4-carboxy-tetrahydropyran) [compound 73] | 1 to 10 nM
99 (XXQTWFCXXXENN; MOD_RES (1)..(1) D-form arginine; MOD_RES (2)..(2) Abu; (2)..(7) residues cyclosized; MOD_RES (8)..(8) 4-(2-aminoethoxy)-L-phenylalanine; MOD_RES (9)..(9) L-2-Napthylalanine; MOD_RES (10)..(10) 4-amino-4-carboxy-tetrahydropyran) [compound 99] | 10 to 100 nM
75 (XXQTWECXXXENN; MOD_RES (1)..(1) D-form arginine; MOD_RES (2)..(2) Abu; (2)..(7) residues cyclosized; MOD_RES (8)..(8) 4-(2-aminoethoxy)-L-phenylalanine; MOD_RES (9)..(9) L-2-Napthylalanine; MOD_RES (10)..(10) 4-amino-4-carboxy-tetrahydropyran) [compound 75] | 1 to 10 nM
80 (Ac-[dR][Abu]QTWEC[AEF][2Nal][Thp]EDN-NH2; thioether 2-7) [compound 80] | 10 to 100 nM

Same assay, conditions: Table L3 (E3), additional peptide inhibitors, IL-23 0.5 nM, 30 minutes at 37° C.

Molecule | IC50
181 (XNTWQXXXXKNNK; MOD_RES (1)..(1) L-Penicillamine; MOD_RES (6)..(6) L-Penicillamine; MOD_RES (7)..(7) 4-(2-aminoethoxy)-L-phenylalanine; MOD_RES (8)..(8) L-2-Napthylalanine; MOD_RES (9)..(9) alpha-methyl-L-Leucine; MOD_RES (10)..(10) …ON; MOD_RES (13)..(13) …ON) [compound 181] | 1 to 10 nM
162 (XNTWQXXXXKNNL; MOD_RES (1)..(1) L-Penicillamine; MOD_RES (6)..(6) L-Penicillamine; MOD_RES (7)..(7) 4-(2-aminoethoxy)-L-phenylalanine; MOD_RES (8)..(8) L-2-Napthylalanine; MOD_RES (9)..(9) alpha-methyl-L-Leucine; MOD_RES (10)..(10) …ON) [compound 162] | 1 to 10 nM
163 (XNTWQXXXXKNNG; MOD_RES (1)..(1) L-Penicillamine; MOD_RES (6)..(6) L-Penicillamine; MOD_RES (7)..(7) 4-(2-aminoethoxy)-L-phenylalanine; MOD_RES (8)..(8) L-2-Napthylalanine; MOD_RES (9)..(9) alpha-methyl-L-Leucine; MOD_RES (10)..(10) …ON) [compound 163] | 1 to 10 nM
156 (XXQTWQCXXXKNN; MOD_RES (1)..(1) D-form arginine; MOD_RES (2)..(2) Abu; (2)..(7) residues cyclosized; MOD_RES (8)..(8) 4-(2-aminoethoxy)-L-phenylalanine; MOD_RES (9)..(9) L-2-Napthylalanine; MOD_RES (10)..(10) 4-amino-4-carboxy-tetrahydropyran; MOD_RES (11)..(11) PEG12 conjugation) [compound 156] | 1 to 10 nM
180 (Ac-K(Ac)[Pen]NTWQ[Pen][4‑Carbamoyl‑L‑phenylalanine][2Nal][αMeL]K(Ac)NN-NH2; disulfide 2-7 (inferred)) [compound 180] | 1 to 10 nM
179 (Ac-K(Ac)[Pen]NTWQ[Pen][AEF][2Nal][αMeL]K(Ac)NN-NH2; disulfide 2-7 (inferred)) [compound 179] | 1 to 10 nM
158 (XNTWQXXXXKNND; MOD_RES (1)..(1) L-Penicillamine; MOD_RES (6)..(6) L-Penicillamine; MOD_RES (7)..(7) 4-(2-aminoethoxy)-L-phenylalanine; MOD_RES (8)..(8) L-2-Napthylalanine; MOD_RES (9)..(9) alpha-methyl-L-Leucine; MOD_RES (10)..(10) …ON) [compound 158] | 1 to 10 nM
